The test system of this experiment is A549 human non-small cell lung tumor. Kind of experiment: In vivo photodynamic therapy, A549 xenograft model. Set-up: species or system mouse. The conditions noted are these: nude mice with A549 tumors, i.v. 5 mg Ppa kg-1 on day 1, 14, 21, 28, 660 nm 200 mW cm-2 8 min, n = 5. Here is the method: and stained by the terminal deoxynucleotidyl transferase dUTP nick end labeling (TUNEL) and CD31 for histology studies.
For studies with an A549 human non-small cell lung tumor model, nude mice were randomly allocated into three groups (n= 5): saline (control), Ppa, and SSAs when the average tumor volume reached 50 mm3. Saline, Ppa, and SSAs (5 mg Ppa kg-1) were injected intravenously on day 1, 14, 21 and 28. At 3 d post injection, the tumors from groups Ppa, and SSAs were irradiated with a 660 nm laser (200 mW cm-2, 8 min). The tumor growth was monitored and the tumor size was measured every 3 d. The mice were sacrificed on day 61 after treatment.
1.3.16 RNA-seq and enriched signaling pathways analysis
4T1 cells (106/culture) were treated by SSAs and free Ppa with or without laser.
Untreated cells were set as a control. Total RNA was extracted (TRIzol Reagent, Thermo Fisher Scientific, USA) and rRNAs were removed by Ribo-zero™ rRNA Removal Kit (Epicentre, CA, USA). Relative abundance of transcripts was calculated with kallisto. The raw RNA-Seq count data were processed by DESeq R packages to obtain differentially expressed genes (DEGs).[4] […]
Enrichment analyses were performed according to the KEGG database. For gene set enrichment analysis (GSEA), all gene sets were analyzed against the curated gene sets […]

Molecules are shown by their SMILES.

This passage reports Tumor growth results from paper PMC8596125, “Self‐Stabilized Supramolecular Assemblies Constructed from PEGylated Dendritic Peptide Conjugate for Augmenting Tumor Retention and Therapy” (Advanced Science, 2021).

`C=Cc1c(C)c2cc3nc(c4c5[nH]c(cc6nc(cc1[nH]2)C(C)=C6CC)c(C)c5C(=O)C4)[C@@H](CCC(=O)O)[C@@H]3C` [Ppa, pyropheophorbide a]: the Tumor growth entry is given as “modest tumor growth suppression”.
